{"source": "patent US8748666B2", "about": "“Preparation methods of methyl-D3-amine and salts thereof” (Suzhou Zelgen Biopharmaceutical Co., Ltd., priority 2010, dated 2014)", "tested_on": "human hepatocellular carcinoma SMMC-7721", "assay": "Inhibition of tumor growth of human hepatocellular carcinoma SMMC-7721 in nude mice xenograft model", "assay_type": "in vivo, Balb/c nu/nu nude mice", "procedure": "70 Balb/c nu/nu nude mice, 6 weeks old, female, were bought from Shanghai Experimental Animal Resource Center (Shanghai B&K Universal Group Limited).\nSMMC-7721 cells were commercially available from Shanghai Institutes for Biological Science, CAS (Shanghai, China).\nThe establishment of tumor nude mice xenograft model: SMMC-7721 cells in logarithmic growth period were cultured. After cell number was counted, the cells were suspended in 1×PBS, and the concentration of the cell suspension was adjusted to 1.5×10^7/ml. The tumor cells were inoculated under the skin of right armpit of nude mice with a 1 ml syringe, 3×10^6/0.2 ml/mice. 70 nude mice were inoculated in total.\nWhen the tumor size reached 30-130 mm^3, 58 mice were divided randomly into the different groups. The difference of the mean value of tumor volume in each group was less than 10% and drugs were started to be administrated.\nAnimal body weight and tumor size were tested twice a week during the experiment. Clinical symptoms were recorded every day. At the end of the administration, the tumor size was recorded by taking pictures. One mouse was sacrificed in each group and tumor tissue was taken and fixed in 4% paraformaldehyde. Observation was continued after the administration, and when the mean size of tumor was larger than 2000 mm^3, or the dying status appeared, the animals were sacrificed, gross anatomy was conducted, and the tumor tissue was taken and fixed in 4% paraformaldehyde.\nThe formula for calculating the tumor volume (TV) is: TV=a×b^2/2, wherein a, b independently represent the length and the breadth of the tumor. The formula for calculating the relative tumor volume (RTV) is: RTV=Vt/V0, wherein V0 is the tumor volume at the beginning of the administration, and Vt is the […] when measured. The index for evaluating the antitumor activity is relative tumor increment rate T/C (%), and the formula is: T/C (%)=(TRTV/CRTV)×100%, wherein, TRTV is the RTV of the treatment group, and CRTV is the RTV of the negative control group.\nEvaluation standard for efficacy: it is effective if the relative tumor increment rate T/C (%) is ≦40% and p<0.05 by statistics analysis.", "key": {"[1]": {"settings": "10 mg/kg po qd x 2 weeks, at the end of administration"}, "[2]": {"settings": "30 mg/kg po qd x 2 weeks, at the end of administration"}, "[3]": {"settings": "100 mg/kg po qd x 2 weeks, at the end of administration (day 15)"}}}
{"smiles": "[2H]C([2H])([2H])NC(=O)c1cc(Oc2ccc(NC(=O)Nc3ccc(Cl)c(C(F)(F)F)c3)cc2)ccn1", "note": "[CM4306, 4-(4-(3-(4-chloro-3-(trifluoromethyl)phenyl)ureido)-phenoxy)-2-(N-methyl)picolinamide, reference compound]", "values": [{"measurement": "relative tumor increment rate T/C %", "setting": "[1]", "result": 56.9, "unit": "%"}, {"measurement": "relative tumor increment rate T/C %", "setting": "[2]", "result": 40.6, "unit": "%"}, {"measurement": "relative tumor increment rate T/C %", "setting": "[3]", "result": 32.2, "unit": "%"}]}
{"smiles": "[2H]C([2H])([2H])NC(=O)c1cc(Oc2ccc(NC(=O)Nc3ccc(Cl)c(C(F)(F)F)c3)cc2)ccn1", "note": "[CM4307, 4-(4-(3-(4-chloro-3-(trifluoromethyl)phenyl)ureido)-phenoxy)-N-(methyl-d3)picolinamide]", "values": [{"measurement": "relative tumor increment rate T/C %", "setting": "[1]", "result": 53.6, "unit": "%"}, {"measurement": "relative tumor increment rate T/C %", "setting": "[2]", "result": 40.8, "unit": "%"}, {"measurement": "increase of relative value of tumor inhibition compared with CM4306 (32.2%/19.6%−1=64%)", "setting": "100 mg/kg po qd x 2 weeks", "result": "about 60%"}, {"measurement": "relative tumor increment rate T/C %", "setting": "[3]", "result": 19.6, "unit": "%"}]}
